Read-outs that look alike come from different tables or passages of the source.
Experiments:
[1] = molecular target: hKOR E297A (Homo sapiens, UniProt P41145, E297A); format: binding
[2] = test system: KOR; details: cited from earlier work
[3] = cited from earlier work
[4] = cited from earlier work; remark: listed apart in the source
[5] = molecular target: KOR (Homo sapiens, UniProt P41145); format: cell-based
[6] = test system: KOR; details: agonist; cited from earlier work
[7] = molecular target: KOR; details: cited from earlier work; remark: listed apart in the source
[8] = test system: KOR; details: cited from earlier work; remark: listed apart in the source

Chain of KOR (Homo sapiens, UniProt P41145) (P41145 whole entry): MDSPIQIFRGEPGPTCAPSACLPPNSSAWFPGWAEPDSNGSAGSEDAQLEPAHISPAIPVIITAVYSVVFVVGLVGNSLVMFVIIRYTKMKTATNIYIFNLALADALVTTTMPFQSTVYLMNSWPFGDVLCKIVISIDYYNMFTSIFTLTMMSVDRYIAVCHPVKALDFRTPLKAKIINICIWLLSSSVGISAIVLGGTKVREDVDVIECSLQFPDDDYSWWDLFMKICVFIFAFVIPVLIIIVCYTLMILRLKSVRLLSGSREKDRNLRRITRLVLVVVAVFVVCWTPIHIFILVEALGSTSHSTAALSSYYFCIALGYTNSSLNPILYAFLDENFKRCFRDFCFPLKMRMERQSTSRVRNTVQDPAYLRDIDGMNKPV
Chain of hKOR E297A (P41145 whole entry E297A): as the sequence (P41145 whole entry) above, with E297A counted along it

Compound: NC(N)=Nc1ccc2[nH]c3c(c2c1)C[C@@]1(O)[C@H]2Cc4ccc(O)c5c4[C@@]1(CCN2CC1CC1)[C@H]3O5 [GNTI]
- Effect of Glu297Ala mutation on binding [1]: significant drop

Compound: CC(C)[C@@H](CN1CC[C@@](C)(c2cccc(O)c2)[C@@H](C)C1)NC(=O)[C@H]1Cc2ccc(O)cc2CN1 [JDTic, (3R)-7-hydroxy-N-[(1S)-1-(((3R,4R)-4-(3-hydroxyphenyl)-3,4-dimethyl-1-piperidinyl)methyl)-2-methylpropyl]-1,2,3,4-tetrahydro-3-isoquinoline-carboxamide]
- Effect on κ-agonist U50,488-induced antinociception [2]: blocks
- Effect of Glu297Ala mutation on binding [1]: did not affect
- Effect on μ-agonist induced analgesia [3]: not antagonizing
- Activity in rodent models of depression, anxiety, stress-induced cocaine relapse, and nicotine withdrawal [4]: robust activity
- Agonist activity, Gi-mediated (canonical) signaling [5]: devoid of agonist activity
- Blockade of the effects of agonist U69593, Gi-mediated signaling [5]: completely blocked

Compound: COC(=O)[C@@H]1C[C@H](OC(=O)CSC#N)C(=O)[C@H]2[C@@]1(C)CC[C@H]1C(=O)O[C@H](c3ccoc3)C[C@]21C [RB-64, 22-thiocyanatosalvinorin A]
- EC50 [6]: 0.077 nM
- Ki [7]: 0.59 nM
